According to US10112935B2, “Indazolyl thiadiazolamines and related compounds for inhibition of Rho-associated protein kinase and the treatment of disease” (Lycera Corporation, priority 2015, dated 2018):

Key:
[1] = molecular target: GST-tagged human ROCK1 catalytic domain 1-477 (Homo sapiens (Human), UniProt Q13464); assay: Inhibition of Rho-associated protein kinase isoform 1 (LANCE Ultra ULight-CREBtide FRET kinase assay); type: biochemical; conditions: 30 μM was the highest concentration analyzed
Sequence of GST-tagged human ROCK1 catalytic domain 1-477 (Q13464 1-477): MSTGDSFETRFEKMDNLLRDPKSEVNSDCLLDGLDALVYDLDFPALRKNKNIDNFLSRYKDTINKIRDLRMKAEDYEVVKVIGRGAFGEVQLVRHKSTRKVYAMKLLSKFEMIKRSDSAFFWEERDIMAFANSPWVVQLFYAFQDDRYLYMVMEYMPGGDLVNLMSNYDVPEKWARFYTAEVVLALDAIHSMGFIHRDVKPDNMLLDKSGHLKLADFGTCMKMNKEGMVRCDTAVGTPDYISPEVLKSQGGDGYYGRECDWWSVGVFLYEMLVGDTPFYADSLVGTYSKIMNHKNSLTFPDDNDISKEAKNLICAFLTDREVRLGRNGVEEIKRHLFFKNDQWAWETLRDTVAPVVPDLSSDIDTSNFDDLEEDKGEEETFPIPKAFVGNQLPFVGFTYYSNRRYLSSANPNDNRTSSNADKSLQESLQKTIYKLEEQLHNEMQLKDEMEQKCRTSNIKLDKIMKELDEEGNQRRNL
Description: (§1) Exemplary compounds were tested for ability to inhibit Rho-associated protein kinase isoform 1 (ROCK1) and Rho-associated protein kinase isoform 2 (ROCK2). Assay procedures and results are described below.
(§2) Protein constructs were purified from a baculovirus expression system. The peptide substrate was fluorescent LANCE® Ultra ULight-CREBtide: […] (PerkinElmer, # TRF0107-D). […] After a 90 minute incubation at room temperature on a shaker table, the kinase reaction was stopped by addition of 10 mM EDTA, and phosphorylation of the substrate was detected by adding 1 nM LANCE® Ultra Europium-anti-phospho-CREB (ser133) antibody (PerkinElmer, # TRF0200-D) and incubating for 60 minutes on a shaker at room temperature. The flurorescence resonance energy transfer (FRET) signals were read and analyzed on an Envision™ 2103 Multilabel Reader (Perkin Elmer).

[2] = molecular target: GST-tagged human ROCK2 catalytic domain 1-553 (Homo sapiens (Human), UniProt O75116); assay: Inhibition of Rho-associated protein kinase isoform 2 (LANCE Ultra ULight-CREBtide FRET kinase assay); type: biochemical; conditions: for IC50: 30 μM was the highest concentration analyzed; for Selectivity for ROCK2 over ROCK1 (IC50 ROCK1 / IC50 ROCK2): selectivity ROCK2 vs ROCK1
Sequence of GST-tagged human ROCK2 catalytic domain 1-553 (O75116 1-553): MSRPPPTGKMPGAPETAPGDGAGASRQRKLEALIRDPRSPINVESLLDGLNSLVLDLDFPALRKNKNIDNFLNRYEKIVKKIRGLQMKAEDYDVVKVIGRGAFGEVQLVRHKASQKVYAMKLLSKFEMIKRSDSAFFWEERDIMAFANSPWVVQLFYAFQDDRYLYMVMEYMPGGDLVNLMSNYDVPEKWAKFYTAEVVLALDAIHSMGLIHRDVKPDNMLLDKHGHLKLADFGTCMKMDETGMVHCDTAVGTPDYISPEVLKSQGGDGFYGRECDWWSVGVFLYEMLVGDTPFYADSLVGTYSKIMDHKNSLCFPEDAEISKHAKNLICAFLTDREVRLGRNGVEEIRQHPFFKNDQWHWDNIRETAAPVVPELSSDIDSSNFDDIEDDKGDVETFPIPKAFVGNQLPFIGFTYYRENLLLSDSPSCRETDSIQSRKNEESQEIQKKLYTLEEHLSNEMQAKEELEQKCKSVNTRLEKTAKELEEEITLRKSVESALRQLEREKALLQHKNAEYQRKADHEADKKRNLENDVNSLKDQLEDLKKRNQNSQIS
Description: as §1, §2

SMILES | IC50 [1] [µM] | IC50 [2] [µM] | Selectivity for ROCK2 over ROCK1 (IC50 ROCK1 / IC50 ROCK2) [2]
CC(C)(C)c1cn2cccc(-c3nnc(Nc4ccc5[nH]ncc5c4Cl)s3)c2n1 [Example 75T] | > 30 | > 30 | 
N[C@@H]1CCN(c2nnc(Nc3ccc4[nH]ncc4c3)s2)C1 [Example A-38] | 1 to 15 | 1 to 15 | <5
CCc1c(Nc2nnc(-c3cccc(NC(C)=O)c3)s2)ccc2[nH]ncc12 [Example 75C] | < 1 | < 1 | >5
Nc1cccc(-c2nnc(Nc3ccc4[nH]ncc4c3)s2)n1.O=C(O)C(F)(F)F [Example 35CR] | > 30 | < 1 | >5
CC(=O)Nc1cc(F)c(F)c(-c2nnc(Nc3ccc4[nH]ncc4c3)s2)c1 [Example 35CB] | > 30 | < 1 | >100
CC(C)NC(=O)COc1cncc(-c2nnc(Nc3ccc4[nH]ncc4c3)s2)c1 [Example A-7] | > 30 | < 1 | >50
CS(=O)(=O)Nc1cncc(-c2nnc(Nc3ccc4[nH]ncc4c3)s2)c1 [Example A-18] | 1 to 15 | 1 to 15 | <5
CN(CC(O)CO)C(=O)c1cccc(-c2nnc(Nc3ccc4[nH]ncc4c3)s2)c1 (stereo not shown) [Example A-10] | 15 to 30 | 1 to 15 | <5
O=C(NCC(O)CO)c1cccc(-c2nnc(Nc3ccc4[nH]ncc4c3)s2)c1 (stereo not shown) [Example A-4] | 1 to 15 | 1 to 15 | <5
O=[N+]([O-])c1cccc(-c2nnc(Nc3ccc4[nH]ncc4c3)s2)c1 [Example A-45] | 1 to 15 | 1 to 15 | <5
Cn1c(C2CCOCC2)nc2c(-c3nnc(Nc4ccc5[nH]ncc5c4)s3)cccc21 [Example 56F] | > 30 | < 1 | >100
CC(=O)Nc1cc(C(=O)N2CCC(C(=O)O)CC2)cc(-c2nnc(Nc3ccc4[nH]ncc4c3Cl)s2)c1 [Example 48Q] | 1 to 15 | < 1 | >5
Cn1cc(C(=O)Nc2cccc(-c3nnc(Nc4ccc5[nH]ncc5c4)s3)c2)cn1 [Example A-41] | > 30 | < 1 | >100
Brc1ccc(-c2cn3cccc(-c4nnc(Nc5ccc6[nH]ncc6c5)s4)c3n2)cc1 [Example 52G] | > 30 | < 1 | >100
COc1cccc(-c2cccc(-c3nnc(Nc4ccc5[nH]ncc5c4Cl)s3)c2)n1 [Example 46H] | > 30 | < 1 | >100
Cn1cnc2c(-c3nnc(Nc4ccc5[nH]ncc5c4)s3)cccc21 [Example A-15] | < 1 | < 1 | <5
Clc1c(Nc2nnc(-c3cccc4c3OCCO4)s2)ccc2[nH]ncc12 [Example 75E] | > 30 | > 30 | 
CC(=O)Nc1ccc(S(C)(=O)=O)c(-c2nnc(Nc3ccc4[nH]ncc4c3Cl)s2)c1 [Example 48E] | 15 to 30 | 1 to 15 | <5
CNCc1ccc(C(=O)Nc2cccc(-c3nnc(Nc4ccc5[nH]ncc5c4)s3)c2)cn1 [Example 75K] | < 1 | < 1 | >5
Cc1cnoc1C(=O)Nc1cccc(-c2nnc(Nc3ccc4[nH]ncc4c3)s2)c1 [Example A-44] | > 30 | < 1 | >100
Clc1c(Nc2nnc(-c3cccc(-c4nnn[nH]4)c3)s2)ccc2[nH]ncc12 [Example 41D] | < 1 | < 1 | >50
Cc1coc(-c2cc(-c3nnc(Nc4ccc5[nH]ncc5c4Cl)s3)ccn2)n1 [Example 40, N-(4-Chloro-1H-indazol-5-yl)-5-(2-(4-methyloxazol-2-yl)pyridin-4-yl)-1,3,4-thiadiazol-2-amine] | < 1 | < 1 | >5
Nc1cncc(-c2nnc(Nc3ccc4[nH]ncc4c3)s2)c1 [Example A-24] | < 1 | < 1 | <5
O=C(Nc1cccc(-c2nnc(Nc3ccc4[nH]ncc4c3)s2)c1)c1cccnc1 [Example A-50] | > 30 | < 1 | >100

Next, values leading:

IC50 [1] [µM] | IC50 [2] [µM] | Selectivity for ROCK2 over ROCK1 (IC50 ROCK1 / IC50 ROCK2) [2] | SMILES
> 30 | < 1 | >100 | CC(=O)c1ccc(-c2cn3cccc(-c4nnc(Nc5ccc6[nH]ncc6c5Cl)s4)c3n2)cc1 [Example 51, 1-(4-(8-(5-((4-Chloro-1H-indazol-5-yl)amino)-1,3,4-thiadiazol-2-yl)imidazo[1,2-a]pyridin-2-yl)phenyl)ethan-1-one]
> 30 | < 1 | >100 | Cn1ccnc1CC(=O)Nc1cccc(-c2nnc(Nc3ccc4[nH]ncc4c3Cl)s2)c1 [Example 35BL]
> 30 | < 1 | >100 | O=C(Nc1cccc(-c2nnc(Nc3ccc4[nH]ncc4c3)s2)c1)c1cnn(CCO)c1 [Example A-20]
< 1 | < 1 | >5 | CN1CCN(C(=O)Nc2ccc(-c3nnc(Nc4ccc5[nH]ncc5c4Cl)s3)cc2)CC1 [Example 75D]
< 1 | < 1 | <5 | O=C(Cc1ncccn1)Nc1cccc(-c2nnc(Nc3ccc4[nH]ncc4c3Cl)s2)c1 [Example 35AP]
< 1 | < 1 | >50 | CC(=O)Nc1cc(CO)cc(-c2nnc(Nc3ccc4[nH]ncc4c3Cl)s2)c1 [Example 48H]
< 1 | < 1 | >5 | O=C(Cc1cnccn1)Nc1cccc(-c2nnc(Nc3ccc4[nH]ncc4c3Cl)s2)c1 [Example 35BP]
1 to 15 | < 1 | >5 | N[C@@H](Cc1ccccc1)C(=O)Nc1cccc(-c2nnc(Nc3ccc4[nH]ncc4c3Cl)s2)c1 [Example 35AV]
< 1 | < 1 | >5 | Cn1cc(C(=O)Nc2cc(-c3nnc(Nc4ccc5[nH]ncc5c4)s3)ccc2C(=O)O)cn1 [Example A-5]
< 1 | < 1 | >100 | Cn1cc(CC(=O)Nc2cccc(-c3nnc(Nc4ccc5[nH]ncc5c4Cl)s3)c2)cn1 [Example 35BH]
< 1 | < 1 | >5 | COc1cccc(C(=O)Nc2cccc(-c3nnc(Nc4ccc5[nH]ncc5c4Cl)s3)c2)c1 [Example 35BT]
1 to 15 | < 1 | >5 | CC(=O)Nc1cc(CN(C)C)cc(-c2nnc(Nc3ccc4[nH]ncc4c3Cl)s2)c1.O=C(O)C(F)(F)F [Example 48C]
> 30 | < 1 | >100 | COc1ncc(C(=O)Nc2cccc(-c3nnc(Nc4ccc5[nH]ncc5c4Cl)s3)c2)cn1.O=C(O)C(F)(F)F [Example 35AU]
1 to 15 | < 1 | >5 | C[C@H](N)C(=O)Nc1cccc(-c2nnc(Nc3ccc4[nH]ncc4c3Cl)s2)c1 [Example 35AA]
> 30 | < 1 | >100 | Cn1ccnc1-c1cccc(-c2nnc(Nc3ccc4[nH]ncc4c3Cl)s2)c1.O=C(O)C(F)(F)F [Example 46E]
< 1 | < 1 | >5 | CC(=O)Nc1cc(CC(=O)O)cc(-c2nnc(Nc3ccc4[nH]ncc4c3Cl)s2)c1 [Example 75S]
< 1 | < 1 | >5 | O=C(O)C(F)(F)F.O=C(O)c1cc(-c2ncco2)cc(-c2nnc(Nc3ccc4[nH]ncc4c3Cl)s2)c1 [Example 46N]
< 1 | < 1 | >5 | Cn1cc(C(=O)Nc2cc(CC(=O)O)cc(-c3nnc(Nc4ccc5[nH]ncc5c4Cl)s3)c2)cn1 [Example 48R]
> 30 | < 1 | >100 | O=C(O)C(F)(F)F.Oc1cccc(-c2cccc(-c3nnc(Nc4ccc5[nH]ncc5c4Cl)s3)c2)n1 [Example 46B]
1 to 15 | < 1 | >5 | CN1C(=O)Cc2c(-c3nnc(Nc4ccc5[nH]ncc5c4Cl)s3)cccc21.O=C(O)C(F)(F)F [Example 43, 4-(5-((4-Chloro-1H-indazol-5-yl)amino)-1,3,4-thiadiazol-2-yl)-1-methylindolin-2-one 2,2,2-trifluoroacetic Acid Solvate]
< 1 | < 1 | >5 | O=C(Nc1cc(-c2nnc(Nc3ccc4[nH]ncc4c3Cl)s2)ccc1C(F)(F)F)c1cnn(CCO)c1 [Example 48M]
